Results from PubChem BioAssay (NCI).
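A five-concentration, 48-hour dose response in 96-well plates underlies each endpoint, interpolated linearly between surrounding concentrations. The concentration for full growth arrest is given as TGI.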

How the values were obtained:
Test in all cases: NCI-60 cell line screen, 48 h
HT29 colon = system: HT29 colon
MDA-N = system: MDA-N
ACHN renal = system: ACHN renal
OVCAR-3 ovarian = system: OVCAR-3 ovarian
DU-145 prostate = system: DU-145 prostate
SR leukemia = system: SR leukemia
UACC-62 melanoma = system: UACC-62 melanoma
SK-MEL-2 melanoma = system: SK-MEL-2 melanoma
M14 melanoma = system: M14 melanoma
TK-10 renal = system: TK-10 renal
SNB-75 CNS = system: SNB-75 CNS
NCI/ADR-RES ovarian = system: NCI/ADR-RES ovarian
U251 CNS = system: U251 CNS
RPMI-8226 leukemia = system: RPMI-8226 leukemia
NCI-H23 lung = system: NCI-H23 lung
PC-3 prostate = system: PC-3 prostate
BT-549 breast = system: BT-549 breast
COLO 205 colon = system: COLO 205 colon
A549 NSCLC = system: A549 NSCLC
OVCAR-5 ovarian = system: OVCAR-5 ovarian
KM12 colon = system: KM12 colon
K-562 leukemia = system: K-562 leukemia
CAKI-1 renal = system: CAKI-1 renal
HCT-116 colon = system: HCT-116 colon
LOX IMVI melanoma = system: LOX IMVI melanoma
MDA-MB-231 breast = system: MDA-MB-231 breast
EKVX NSCLC = system: EKVX NSCLC
SK-MEL-5 melanoma = system: SK-MEL-5 melanoma
MOLT-4 leukemia = system: MOLT-4 leukemia
SN12C renal = system: SN12C renal
SK-OV-3 ovarian = system: SK-OV-3 ovarian
SW-620 colon = system: SW-620 colon
SF-268 CNS = system: SF-268 CNS
IGROV1 ovarian = system: IGROV1 ovarian
HOP-62 NSCLC = system: HOP-62 NSCLC
HOP-92 NSCLC = system: HOP-92 NSCLC
CCRF-CEM leukemia = system: CCRF-CEM leukemia
SF-295 CNS = system: SF-295 CNS
UO-31 renal = system: UO-31 renal
NCI-H226 lung = system: NCI-H226 lung
MDA-MB-435 = system: MDA-MB-435
SNB-19 CNS = system: SNB-19 CNS
UACC-257 melanoma = system: UACC-257 melanoma
SK-MEL-28 melanoma = system: SK-MEL-28 melanoma
OVCAR-8 ovarian = system: OVCAR-8 ovarian
T-47D breast = system: T-47D breast
NCI-H460 lung = system: NCI-H460 lung
RXF 393 renal = system: RXF 393 renal
MCF7 breast = system: MCF7 breast
HCC-2998 colon = system: HCC-2998 colon
OVCAR-4 ovarian = system: OVCAR-4 ovarian
HS 578T breast = system: HS 578T breast
786-0 renal = system: 786-0 renal
HL-60(TB) leukemia = system: HL-60(TB) leukemia
NCI-H522 lung = system: NCI-H522 lung
HCT-15 colon = system: HCT-15 colon
SF-539 CNS = system: SF-539 CNS
A498 renal = system: A498 renal

Measured: TGI

CN1C(=O)CC(=O)N1/C(=C/c1ccccc1)c1ccccc1
42.2 µM: IGROV1 ovarian
32 µM: UO-31 renal
> 100 µM: HT29 colon | MDA-N | ACHN renal | OVCAR-3 ovarian | DU-145 prostate | SR leukemia | UACC-62 melanoma | SK-MEL-2 melanoma | M14 melanoma | SNB-75 CNS | NCI/ADR-RES ovarian | U251 CNS | RPMI-8226 leukemia | NCI-H23 lung | PC-3 prostate | BT-549 breast | COLO 205 colon | A549 NSCLC | OVCAR-5 ovarian | KM12 colon | K-562 leukemia | HCT-116 colon | EKVX NSCLC | SK-MEL-5 melanoma | SN12C renal | SK-OV-3 ovarian | SW-620 colon | SF-268 CNS | HOP-62 NSCLC | HOP-92 NSCLC | SF-295 CNS | NCI-H226 lung | MDA-MB-435 | SNB-19 CNS | UACC-257 melanoma | SK-MEL-28 melanoma | OVCAR-8 ovarian | T-47D breast | NCI-H460 lung | MCF7 breast | HCC-2998 colon | OVCAR-4 ovarian
79.4 µM: MDA-MB-231 breast
31.2 µM: LOX IMVI melanoma
54.3 µM: CCRF-CEM leukemia
62.5 µM: CAKI-1 renal
91.9 µM: TK-10 renal
54.1 µM: RXF 393 renal
55.5 µM: MOLT-4 leukemia
88.1 µM: HS 578T breast

c1cc(-c2ccc(-c3ccsc3)s2)cs1
> 100 µM: HT29 colon | MDA-N | ACHN renal | OVCAR-3 ovarian | DU-145 prostate | SR leukemia | UACC-62 melanoma | M14 melanoma | TK-10 renal | 786-0 renal | RPMI-8226 leukemia | COLO 205 colon | OVCAR-5 ovarian | K-562 leukemia | CAKI-1 renal | HCT-116 colon | LOX IMVI melanoma | EKVX NSCLC | SK-MEL-5 melanoma | MOLT-4 leukemia | SN12C renal | SK-OV-3 ovarian | SW-620 colon | NCI-H522 lung | SF-268 CNS | IGROV1 ovarian | HOP-62 NSCLC | HOP-92 NSCLC | HCT-15 colon | SF-295 CNS | MDA-MB-435 | UACC-257 melanoma | A498 renal | OVCAR-8 ovarian | T-47D breast | NCI-H460 lung | RXF 393 renal | MCF7 breast | HCC-2998 colon | HS 578T breast
98.7 µM: NCI-H226 lung
64.5 µM: A549 NSCLC
49.7 µM: U251 CNS
67 µM: HL-60(TB) leukemia
76.4 µM: SNB-75 CNS
98.4 µM: UO-31 renal
87.5 µM: NCI/ADR-RES ovarian
44.4 µM: CCRF-CEM leukemia
57.5 µM: OVCAR-4 ovarian
61 µM: NCI-H23 lung
89.8 µM: SF-539 CNS
